One test has as its target T1, PDHK2 (Homo sapiens, UniProt Q15119).
T1 construct: purchased Carna Bioscience
Briefly: Biochemical activity testing of PDHK2: PDC inactivation assay. Conditions: human rec PDHK2, PDC from porcine heart, ATP 5 μM; read-out: IC50 PDHK2 (enzyme assay). An outline of the steps: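 Human recombinant PDHK2 (137 nM final) preincubated 30 min at RT with porcine heart PDC (20 mU/ml) and compound in pH 7.0 phosphate buffer, then phosphorylated with 5 μM ATP for 30 min at 37 °C. Residual PDC activity read as NADH fluorescence increase (Ex 340/Em 450) over 45 min; inhibitor-free reaction as full value, 3 mM DCA as zero, IC50 derived.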

The next test deals with PDH-Elalpha (pSer300). Briefly: Cellular immunofluorescence assay in HEK293T cells. Format: cell-based. Conditions: Homo sapiens, HEK-293T, 5 hours incubation, anti-PDH-E1alpha pSer300 immunofluorescence, read-out: IC50 (cell data). The method, then: Cellular Assay for Determination of Compound Activities
Compound activities were determined in a cellular immunofluorescence assay. Human HEK293T cells were seeded into black 384-well plates with clear bottom and grown overnight.
Next day, test compounds were added to the wells and the plates incubated for 5 hours. Following this, cells were fixed with formaldehyde, permeabilised and blocked. The primary antibody, Anti-PDH-Elalpha (pSer300), AP1064 (Merck Millipore) was added and incubated overnight in the plate wells. Next, cells were washed and the seconday antibody, Alexa Fluor 488, goat anti-rabbit ab (A-11008, Invitrogen) was added together with Hoechst 33258 (H3569, Invitrogen) and incubated for 1 hour in the plate wells. Finally, cells were washed and the plates were measured on the laser scanning cytometer acumen hci (TTpLabtech).
The raw data were normalized against a pharmacological inhibitor control and dose response curves were generated by plotting the percent effect values using the software package Genedata screener (Genedata).

The target of another test is T2, human PDHK2 (12-407) (Homo sapiens, UniProt Q15119).
T2 construct: The human PDHK2 (12-407) was produced in E. coli; His-tag (cleaved yes); made in house; host or cells: E. coli
Put plainly: Isothermal titration calorimetry (ITC) binding. Conditions: 30° C., pH 7.5. The essentials:
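Untagged PDHK2 (12-407) from E. coli at 50 μM titrated into 5 μM compound at 30° C in pH 7.5 HEPES/KCl/MgCl2/phosphate buffer, ≤1% DMSO. One-site fit gave KA, ΔH^obs and N after heat-of-dilution correction; protein concentration referenced to a standard inhibitor and compound concentration adjusted to 1:1 stoichiometry.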

The source of these data is patent US9751861B2, “N1-(3,3,3-trifluoro-2-hydroxo-2-methylpropionyl)-piperidine derivatives as inhibitors of pyruvate dehydrogenase kinase” (MERCK PATENT GMBH, priority 2013, dated 2017).

On to `C[C@@](O)(C(=O)N1CCC(c2ccnn2-c2cccc(Cl)c2)CC1)C(F)(F)F` [Compound A12, (R)-1-{4-[2-(3-Chloro-phenyl)-2H-pyrazol-3-yl]-piperidin-1-yl}-3,3,3-trifluoro-2-hydroxy-2-methyl-propan-1-one], for which the IC50 (usually the concentration that gives 50% inhibition) at PDHK2 fell in the range of 300 to 3000 nM; with PDH-Elalpha (pSer300) it was 3000 to 50000 nM. The equilibrium dissociation constant (Kd) (as a rule, the concentration at which binding is half-saturated) at human PDHK2 (12-407) is under 300 nM.

For `C[C@@](O)(C(=O)N1CCC(c2ccnn2-c2ccc(Cl)cc2)CC1)C(F)(F)F` [Compound A13, (R)-1-{4-[2-(4-Chloro-phenyl)-2H-pyrazol-3-yl]-piperidin-1-yl}-3,3,3-trifluoro-2-hydroxy-2-methyl-propan-1-one], the IC50 was under 300 nM at PDHK2 and 300 to 3000 nM with PDH-Elalpha (pSer300). For the same compound, the Kd on human PDHK2 (12-407) was under 300 nM.

As to `C[C@@](O)(C(=O)N1CCC(c2ccnn2-c2ccc(F)cc2)CC1)C(F)(F)F` [Compound A14, (R)-3,3,3-Trifluoro-1-{4-[2-(4-fluoro-phenyl)-2H-pyrazol-3-yl]-piperidin-1-yl}-2-hydroxy-2-methyl-propan-1-one], the IC50 is under 300 nM on PDHK2 and 300 to 3000 nM with PDH-Elalpha (pSer300). This compound also gave a Kd at human PDHK2 (12-407) of under 300 nM.

In the case of `C[C@@](O)(C(=O)N1CCC(c2ccnn2-c2cccc(Cl)c2F)CC1)C(F)(F)F` [Compound A15, (R)-1-{4-[2-(3-Chloro-2-fluoro-phenyl)-2H-pyrazol-3-yl]-piperidin-1-yl}-3,3,3-trifluoro-2-hydroxy-2-methyl-propan-1-one], the 50% inhibitory concentration (IC50) at PDHK2 and in the test on PDH-Elalpha (pSer300) was under 300 nM each time. The Kd at human PDHK2 (12-407) was under 300 nM.

With `Cc1ccc(-n2nccc2C2CCN(C(=O)[C@@](C)(O)C(F)(F)F)CC2)c(F)c1` [Compound A16, (R)-3,3,3-Trifluoro-1-{4-[2-(2-fluoro-4-methyl-phenyl)-2H-pyrazol-3-yl]-piperidin-1-yl}-2-hydroxy-2-methyl-propan-1-one], the IC50 is under 300 nM at PDHK2 and 300 to 3000 nM in the test with PDH-Elalpha (pSer300). The same compound returned a Kd at human PDHK2 (12-407) of under 300 nM.

On to `CC(C)(C)n1nccc1C1CCN(C(=O)[C@@](C)(O)C(F)(F)F)CC1` [Compound A17, (R)-1-[4-(2-tert-Butyl-2H-pyrazol-3-yl)-piperidin-1-yl]-3,3,3-trifluoro-2-hydroxy-2-methyl-propan-1-one], for which the IC50 on PDHK2 and in the test on PDH-Elalpha (pSer300) was 300 to 3000 nM throughout. This compound also came in with a Kd on human PDHK2 (12-407) of under 300 nM.

Regarding `C[C@@](O)(C(=O)N1CCC(c2ccnn2-c2ccc(C(F)(F)F)cc2Cl)CC1)C(F)(F)F` [Compound A18, (R)-1-{4-[2-(2-Chloro-4-trifluoromethyl-phenyl)-2H-pyrazol-3-yl]-piperidin-1-yl}-3,3,3-trifluoro-2-hydroxy-2-methyl-propan-1-one], the IC50 at PDHK2 is under 300 nM; in the test on PDH-Elalpha (pSer300), 300 to 3000 nM. This compound displayed a Kd at human PDHK2 (12-407) of under 300 nM.

Take `C[C@@](O)(C(=O)N1CCC(c2ccnn2-c2ncc(Br)cn2)CC1)C(F)(F)F` [Compound A19, (R)-1-{4-[2-(5-Bromo-pyrimidin-2-yl)-2H-pyrazol-3-yl]-piperidin-1-yl}-3,3,3-trifluoro-2-hydroxy-2-methyl-propan-1-one]: the IC50 at PDHK2 and in the test on PDH-Elalpha (pSer300) was 300 to 3000 nM in each case. On human PDHK2 (12-407), the Kd is under 300 nM.

With `CC(C)(O)c1ccc(-n2nccc2C2CCN(C(=O)[C@@](C)(O)C(F)(F)F)CC2)cc1` [Compound A20, (R)-3,3,3-Trifluoro-2-hydroxy-1-(4-{2-[4-(1-hydroxy-1-methyl-ethyl)-phenyl]-2H-pyrazol-3-yl}-piperidin-1-yl)-2-methyl-propan-1-one], the figures for the IC50 on PDHK2 and in the test on PDH-Elalpha (pSer300) were under 300 nM and 300 to 3000 nM, respectively. In addition, the Kd at human PDHK2 (12-407) was under 300 nM.

For `CC(C)(C)c1ccc(-n2nccc2C2CCN(C(=O)[C@@](C)(O)C(F)(F)F)CC2)cc1` [Compound A21, (R)-1-{4-[2-(4-tert-Butyl-phenyl)-2H-pyrazol-3-yl]-piperidin-1-yl}-3,3,3-trifluoro-2-hydroxy-2-methyl-propan-1-one], the 50% inhibitory concentration (IC50) on PDHK2 and in the test on PDH-Elalpha (pSer300) was 300 to 3000 nM each time. The same compound showed a Kd on human PDHK2 (12-407) of under 300 nM.

With `CC(C)c1ccc(-n2nccc2C2CCN(C(=O)[C@@](C)(O)C(F)(F)F)CC2)cc1` [Compound A22, (R)-3,3,3-Trifluoro-2-hydroxy-1-{4-[2-(4-isopropyl-phenyl)-2H-pyrazol-3-yl]-piperidin-1-yl}-2-methyl-propan-1-one], the IC50 on PDHK2 and in the test on PDH-Elalpha (pSer300) was 300 to 3000 nM each time. This compound showed a Kd on human PDHK2 (12-407) of under 300 nM.

Consider `C[C@@](O)(C(=O)N1CCC(c2ccnn2-c2ccc(Cl)cc2F)CC1)C(F)(F)F` [Compound A23, (R)-1-{4-[2-(4-Chloro-2-fluoro-phenyl)-2H-pyrazol-3-yl]-piperidin-1-yl}-3,3,3-trifluoro-2-hydroxy-2-methyl-propan-1-one], for which the results for the IC50 on PDHK2 and with PDH-Elalpha (pSer300) were under 300 nM and 300 to 3000 nM, respectively. At human PDHK2 (12-407), this compound came in with a Kd of under 300 nM.

Take `CCc1ccc(-n2nccc2C2CCN(C(=O)[C@@](C)(O)C(F)(F)F)CC2)cc1` [Compound A24, (R)-1-{4-[2-(4-Ethyl-phenyl)-2H-pyrazol-3-yl]-piperidin-1-yl}-3,3,3-trifluoro-2-hydroxy-2-methyl-propan-1-one]: the IC50 at PDHK2 is under 300 nM; with PDH-Elalpha (pSer300) it was 300 to 3000 nM. The same compound registered a Kd on human PDHK2 (12-407) of under 300 nM.

As for `C[C@@](O)(C(=O)N1CCC(c2ccnn2-c2ccccc2)CC1)C(F)(F)F` [Compound A25, (R)-3,3,3-Trifluoro-2-hydroxy-2-methyl-1-[4-(2-phenyl-2H-pyrazol-3-yl)piperidin-1-yl]-propan-1-one], the IC50 on PDHK2 and in the test with PDH-Elalpha (pSer300) was 300 to 3000 nM throughout. At human PDHK2 (12-407), this compound gave a Kd of under 300 nM.

As for `C[C@@](O)(C(=O)N1CCC(c2ccnn2-c2ccc(F)cc2F)CC1)C(F)(F)F` [Compound A26, (R)-1-{4-[2-(2,4-Difluoro-phenyl)-2H-pyrazol-3-yl]-piperidin-1-yl}-3,3,3-trifluoro-2-hydroxy-2-methyl-propan-1-one], the IC50 at PDHK2 was under 300 nM; in the test with PDH-Elalpha (pSer300), 300 to 3000 nM. Besides, at human PDHK2 (12-407), the Kd is under 300 nM.

For `C[C@@](O)(C(=O)N1CCC(c2ccnn2-c2ccc(C(F)(F)F)cc2)CC1)C(F)(F)F` [Compound A27, (R)-3,3,3-Trifluoro-2-hydroxy-2-methyl-1-{4-[2-(4-trifluoromethyl-phenyl)-2H-pyrazol-3-yl]-piperidin-1-yl}-propan-1-one], the IC50 is under 300 nM on PDHK2 and 300 to 3000 nM with PDH-Elalpha (pSer300). Also, on human PDHK2 (12-407), the Kd was under 300 nM.

Consider `COc1ccc(-n2nccc2C2CCN(C(=O)[C@@](C)(O)C(F)(F)F)CC2)c(F)c1` [Compound A28, (R)-3,3,3-Trifluoro-1-{4-[2-(2-fluoro-4-methoxy-phenyl)-2H-pyrazol-3-yl]-piperidin-1-yl}-2-hydroxy-2-methyl-propan-1-one], for which the IC50 at PDHK2 is under 300 nM; in the test on PDH-Elalpha (pSer300), 300 to 3000 nM. In addition, at human PDHK2 (12-407), the Kd was under 300 nM.

`C[C@@](O)(C(=O)N1CCC(c2cc(C(F)(F)F)nn2-c2ccc(Cl)cc2)CC1)C(F)(F)F` [Compound A35, (R)-1-{4-[2-(4-Chloro-phenyl)-5-trifluoromethyl-2H-pyrazol-3-yl]-piperidin-1-yl}-3,3,3-trifluoro-2-hydroxy-2-methyl-propan-1-one]: the IC50 is under 300 nM on PDHK2 and 300 to 3000 nM in the test with PDH-Elalpha (pSer300). The same compound came in with a Kd on human PDHK2 (12-407) of under 300 nM.

Consider `CC(C)n1nccc1C1CCN(C(=O)[C@@](C)(O)C(F)(F)F)CC1` [Compound A36, (R)-1-[4-(2-Isopropyl-2H-pyrazol-3-yl)-piperidin-1-yl]-3,3,3-trifluoro-2-hydroxy-2-methyl-propan-1-one], for which the IC50 was 300 to 3000 nM on PDHK2 and 3000 to 50000 nM in the test on PDH-Elalpha (pSer300). On human PDHK2 (12-407), this compound gave a Kd of under 300 nM.

`C[C@@](O)(C(=O)N1CCC(c2ccnn2C2CCCCC2)CC1)C(F)(F)F` [Compound A37, (R)-1-[4-(2-Cyclohexyl-2H-pyrazol-3-yl)-piperidin-1-yl]-3,3,3-trifluoro-2-hydroxy-2-methyl-propan-1-one]: the figures for the IC50 at PDHK2 and in the test on PDH-Elalpha (pSer300) were 300 to 3000 nM and 3000 to 50000 nM, respectively. The Kd on human PDHK2 (12-407) is under 300 nM.

On to `C[C@@](O)(C(=O)N1CCC(c2ccnn2Cc2ccccc2)CC1)C(F)(F)F` [Compound A38, (R)-1-[4-(2-Benzyl-2H-pyrazol-3-yl)-piperidin-1-yl]-3,3,3-trifluoro-2-hydroxy-2-methyl-propan-1-one], for which the IC50 on PDHK2 and with PDH-Elalpha (pSer300) was 300 to 3000 nM in each case. At human PDHK2 (12-407), this compound registered a dissociation constant Kd of under 300 nM.

As for `C[C@@](O)(C(=O)N1CCC(c2ccnn2-c2ccc(F)cc2Cl)CC1)C(F)(F)F` [Compound A39, (R)-1-{4-[2-(2-Chloro-4-fluoro-phenyl)-2H-pyrazol-3-yl]-piperidin-1-yl}-3,3,3-trifluoro-2-hydroxy-2-methyl-propan-1-one], the figures for the IC50 on PDHK2 and with PDH-Elalpha (pSer300) were under 300 nM and 300 to 3000 nM, respectively. The Kd at human PDHK2 (12-407) was under 300 nM.
